Consider 1 substance from patent US20170157212A1, “CDK MODULATORS AND METHODS FOR THE TREATMENT OF CANCER” (Salk Institute for Biological Studies, priority 2015, published 2017).

For assay [1], the target named is T1, affinity-purified CDK9/P-TEFb complex (Homo sapiens, UniProt P50750).
T1 construct: FLAG; made in house
Briefly: In vitro kinase assay: CDK9/P-TEFb phosphorylation of GST-CTD. It is filed as biochemical. The following applies: affinity-purified FLAG-CDK9 kinase, immunoblot. The source says:
(§1) (A) CRIF1 and CDK12 have opposite effects on global RNAPII CTD-Ser2P levels in vivo. U2OS cells were transfected with indicated siRNAs for 48 hr, and RNAPII phosphorylation was monitored by immunoblot using phospho-specific CTD (Ser2P and Ser5P) antibodies. (B) Knockdown of CRIF1 up-regulates CHK1 expression and induction of p53. […] (C) Analysis of steady-state mRNA levels by qRT-PCR in extracts from U2OS cells exposed to control (CTL) or CRIF1-specific siRNAs, as indicated. (D) Depletion of CRIF1 enhances 4E-BP1 phosphorylation at S65 and T70 in vivo, as assessed by immunoblot using phospho-specific antibodies. (E) CRIF1 inhibits RNAPII CTD-Ser2 phosphorylation by CDK12 complexes in vitro. The human GST-CTD (52 repeat) protein was incubated in vitro with the affinity-purified HA-CDK12 kinase complex in the absence or presence of increasing levels of purified recombinant CRIF1, and analyzed by immunoblot with the indicated antisera. […] Analysis of GST-CTD Ser2 phosphorylation was carried out as described in (E), using the affinity-purified FLAG-CDK9 kinase. (G) CRIF1 inhibits 4E-BP1 phosphorylation by CDK12 in vitro. […] was monitored by immunoblot in the absence or in the presence of different levels of affinity-purified recombinant CRIF1. […]
(In general: In western blotting, separated proteins are transferred to a membrane and probed.)

A further assay deals with CDK12. In words: In vitro kinase assay: CDK12 phosphorylation of recombinant 4E-BP1 (S65, T70). It is filed as biochemical, human. The following applies: reactions with CDK12 and mTORC1/Raptor, dose-dependent.
Source text: as §1

T1 sequence (P50750 whole entry): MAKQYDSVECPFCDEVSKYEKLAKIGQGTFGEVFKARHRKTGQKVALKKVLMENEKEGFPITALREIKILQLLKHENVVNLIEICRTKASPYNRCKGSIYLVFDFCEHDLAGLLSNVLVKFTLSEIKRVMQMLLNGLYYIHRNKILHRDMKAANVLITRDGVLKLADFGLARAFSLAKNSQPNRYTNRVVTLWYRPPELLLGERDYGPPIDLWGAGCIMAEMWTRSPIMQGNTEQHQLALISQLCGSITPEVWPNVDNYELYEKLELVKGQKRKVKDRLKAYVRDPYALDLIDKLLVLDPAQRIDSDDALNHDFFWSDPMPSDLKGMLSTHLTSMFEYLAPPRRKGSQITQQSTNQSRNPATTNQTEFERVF
T1 sequence (O60563 whole entry partner): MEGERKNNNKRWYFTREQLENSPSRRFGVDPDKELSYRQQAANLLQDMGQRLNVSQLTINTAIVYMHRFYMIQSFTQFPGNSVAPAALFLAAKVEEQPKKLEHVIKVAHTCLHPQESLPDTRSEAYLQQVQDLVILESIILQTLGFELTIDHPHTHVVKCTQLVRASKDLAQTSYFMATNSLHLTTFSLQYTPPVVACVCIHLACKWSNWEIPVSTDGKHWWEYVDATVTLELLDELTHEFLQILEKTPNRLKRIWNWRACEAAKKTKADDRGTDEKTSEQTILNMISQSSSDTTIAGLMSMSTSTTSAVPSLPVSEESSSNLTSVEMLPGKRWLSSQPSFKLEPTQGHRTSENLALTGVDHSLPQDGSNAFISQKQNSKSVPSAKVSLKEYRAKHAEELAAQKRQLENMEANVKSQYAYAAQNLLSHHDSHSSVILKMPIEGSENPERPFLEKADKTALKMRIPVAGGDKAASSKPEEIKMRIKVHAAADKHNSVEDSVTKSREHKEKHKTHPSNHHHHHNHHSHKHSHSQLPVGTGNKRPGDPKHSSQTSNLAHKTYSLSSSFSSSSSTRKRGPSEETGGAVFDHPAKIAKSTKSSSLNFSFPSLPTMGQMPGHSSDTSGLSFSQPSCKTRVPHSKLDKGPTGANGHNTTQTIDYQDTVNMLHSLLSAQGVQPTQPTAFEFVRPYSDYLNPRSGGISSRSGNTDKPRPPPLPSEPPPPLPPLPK
Sequence of CDK12 (Q9NYV4 whole entry): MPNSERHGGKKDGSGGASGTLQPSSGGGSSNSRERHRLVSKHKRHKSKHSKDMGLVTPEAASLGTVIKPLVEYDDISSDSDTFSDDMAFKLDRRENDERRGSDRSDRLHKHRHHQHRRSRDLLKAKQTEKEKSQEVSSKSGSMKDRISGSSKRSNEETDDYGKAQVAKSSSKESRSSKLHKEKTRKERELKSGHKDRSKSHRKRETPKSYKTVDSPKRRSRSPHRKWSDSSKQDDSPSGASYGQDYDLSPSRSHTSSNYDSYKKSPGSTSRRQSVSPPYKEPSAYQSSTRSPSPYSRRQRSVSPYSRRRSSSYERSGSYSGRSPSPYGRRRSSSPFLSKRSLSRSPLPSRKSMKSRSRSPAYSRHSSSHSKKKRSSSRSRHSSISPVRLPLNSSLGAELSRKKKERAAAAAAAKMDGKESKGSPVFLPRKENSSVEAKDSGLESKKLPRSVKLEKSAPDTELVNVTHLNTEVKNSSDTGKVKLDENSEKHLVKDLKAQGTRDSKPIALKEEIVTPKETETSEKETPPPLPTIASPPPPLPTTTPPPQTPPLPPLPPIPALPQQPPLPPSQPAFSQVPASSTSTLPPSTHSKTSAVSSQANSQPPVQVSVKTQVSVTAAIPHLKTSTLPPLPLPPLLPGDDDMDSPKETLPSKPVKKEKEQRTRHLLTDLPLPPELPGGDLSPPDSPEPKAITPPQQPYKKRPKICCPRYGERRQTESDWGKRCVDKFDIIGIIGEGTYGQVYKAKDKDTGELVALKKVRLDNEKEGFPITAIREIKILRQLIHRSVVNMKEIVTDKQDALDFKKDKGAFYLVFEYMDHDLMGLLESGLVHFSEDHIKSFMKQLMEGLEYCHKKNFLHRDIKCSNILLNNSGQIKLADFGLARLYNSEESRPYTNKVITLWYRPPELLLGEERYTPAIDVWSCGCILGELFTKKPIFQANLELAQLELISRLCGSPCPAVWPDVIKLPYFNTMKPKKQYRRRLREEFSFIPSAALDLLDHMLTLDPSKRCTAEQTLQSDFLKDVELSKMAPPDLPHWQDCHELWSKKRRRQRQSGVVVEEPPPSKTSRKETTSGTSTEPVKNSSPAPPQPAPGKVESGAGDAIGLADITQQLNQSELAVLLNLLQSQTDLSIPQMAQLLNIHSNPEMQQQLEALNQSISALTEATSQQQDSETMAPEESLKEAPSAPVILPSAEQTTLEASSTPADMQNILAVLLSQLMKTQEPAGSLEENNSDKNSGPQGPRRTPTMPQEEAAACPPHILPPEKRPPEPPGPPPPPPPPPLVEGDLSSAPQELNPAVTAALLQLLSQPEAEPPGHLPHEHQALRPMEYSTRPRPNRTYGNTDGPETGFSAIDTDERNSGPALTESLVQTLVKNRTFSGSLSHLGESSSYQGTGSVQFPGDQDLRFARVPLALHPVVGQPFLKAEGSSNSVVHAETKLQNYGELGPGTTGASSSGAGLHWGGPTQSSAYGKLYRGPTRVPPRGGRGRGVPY
Sequence of CDK12 (O75909 whole entry partner): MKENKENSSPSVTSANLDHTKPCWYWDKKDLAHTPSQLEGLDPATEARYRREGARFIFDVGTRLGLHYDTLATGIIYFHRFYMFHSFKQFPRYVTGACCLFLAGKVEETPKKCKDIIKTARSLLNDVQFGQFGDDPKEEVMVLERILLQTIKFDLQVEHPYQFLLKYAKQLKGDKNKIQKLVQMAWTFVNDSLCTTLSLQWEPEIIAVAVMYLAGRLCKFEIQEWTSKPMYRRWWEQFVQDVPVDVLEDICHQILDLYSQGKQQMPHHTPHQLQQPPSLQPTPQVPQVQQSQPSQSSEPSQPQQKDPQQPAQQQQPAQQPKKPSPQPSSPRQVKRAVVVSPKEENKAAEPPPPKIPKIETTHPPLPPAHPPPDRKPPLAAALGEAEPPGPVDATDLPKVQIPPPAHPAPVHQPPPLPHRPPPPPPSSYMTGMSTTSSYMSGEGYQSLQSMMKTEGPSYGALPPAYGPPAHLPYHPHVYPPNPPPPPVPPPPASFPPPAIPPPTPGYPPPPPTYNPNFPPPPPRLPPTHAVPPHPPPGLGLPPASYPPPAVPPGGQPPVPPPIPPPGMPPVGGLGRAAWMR

Turning to “Growth Arrest and DNA Damage-Inducible Proteins-Interacting Protein 1 [CRIF1]”, the entries for the “CDK9/P-TEFb phosphorylation of the GST-CTD substrate” value in assay [1] (listed as Recombinant CRIF1) and in assay [1] (listed as rCRIF) were “does not inhibit” and “no effect”, respectively. Besides, the “S65 and T70 phosphorylation of 4E-BP1 by CDK12” value is “inhibits” with CDK12; “potently and selectively inhibited” with CDK12 (listed as rCRIF1).
